Consider seven molecules from article PMC9090415, “Discovery of small molecule inhibitors of Plasmodium falciparum apicoplast DNA polymerase” (Journal of Enzyme Inhibition and Medicinal Chemistry, 2022).

What is called IC50 is the point on the concentration scale where inhibition reaches its midpoint.

The target of this assay is P. falciparum apicoplast DNA polymerase (Pf-apPOL) (Plasmodium falciparum, UniProt Q8ILY1). Nature of the assay: Fluorescence-based high-throughput DNA polymerase assay (molecular beacon), primary screen and dose-response.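 For % inhibition ApPOL 90': test concentration in µM.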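 For % inhibition apPOL 180': test concentration in µM.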 The format is biochemical. Summed up: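 Single-point screening used 10 µM compound with 20 nM polymerase, 20 nM hairpin substrate and 6 µM dNTPs for 90 min at 25 °C. Confirmatory titrations (2.5–80 µM) followed fluorescence at three times, and IC50 was derived from a fit including a cooperativity term n.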

Setting [1] is: supplemental file 2, sheet IC50 nontoxic compounds; Pf-apPOL.

Sequence of P. falciparum apicoplast DNA polymerase (Pf-apPOL) (Q8ILY1 entry or part of it): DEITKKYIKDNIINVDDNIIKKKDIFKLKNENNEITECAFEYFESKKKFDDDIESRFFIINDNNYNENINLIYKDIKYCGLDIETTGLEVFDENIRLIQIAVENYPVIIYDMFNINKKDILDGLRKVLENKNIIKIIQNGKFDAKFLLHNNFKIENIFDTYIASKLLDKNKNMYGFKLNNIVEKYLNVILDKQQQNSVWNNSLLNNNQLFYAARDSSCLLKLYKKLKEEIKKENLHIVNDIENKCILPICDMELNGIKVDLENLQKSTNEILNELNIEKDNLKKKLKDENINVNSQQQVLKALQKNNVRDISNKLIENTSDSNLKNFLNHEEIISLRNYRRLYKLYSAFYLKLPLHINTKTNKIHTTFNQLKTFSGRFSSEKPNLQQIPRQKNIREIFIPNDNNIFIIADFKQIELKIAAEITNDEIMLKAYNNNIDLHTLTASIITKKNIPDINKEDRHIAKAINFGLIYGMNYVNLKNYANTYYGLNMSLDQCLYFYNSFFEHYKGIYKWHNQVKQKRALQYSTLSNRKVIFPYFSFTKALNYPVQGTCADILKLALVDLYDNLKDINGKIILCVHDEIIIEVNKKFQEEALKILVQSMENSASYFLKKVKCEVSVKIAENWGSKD

Take `O=C(NNC(=O)C(F)(F)Sc1ccccc1)c1ccsc1` [Molecule 68, O=C(C(Sc1ccccc1)(F)F)NNC(=O)c1cscc1]: the “DNA Pol” value runs as follows: ('DNA Pol'; screening value, unit not given; 90 min, 10 µM) 82; (primary screen hit value, DNA Pol (186 hits); 90 min, 10 µM) 82. The “% inhibition Apo pol 10'” value runs as follows: (DRC-1; 10'; concentration 2.5) 18.9007%; (DRC-1; 10'; concentration 5) 22.6096%; (DRC-1; 10'; concentration 10) 35.002%; (DRC-1; 10'; concentration 20) 47.6682%; (DRC-1; 10'; concentration 40) 67.1681%; (DRC-1; 10'; concentration 80) 81.7014%. Moreover, the “% inhibition Apol 90'” value was -2.054% (DRC-1; 90'; concentration 2.5); 4.132% (DRC-1; 90'; concentration 5); 13.2706% (DRC-1; 90'; concentration 10); 25.6835% (DRC-1; 90'; concentration 20); 44.8257% (DRC-1; 90'; concentration 40); 64.9924% (DRC-1; 90'; concentration 80). The “% inhibition apPOL 180'” value is -9.701% (DRC-1; 180'; concentration 2.5); -6.4745% (DRC-1; 180'; concentration 5); 2.016% (DRC-1; 180'; concentration 10); 13.4425% (DRC-1; 180'; concentration 20); 32.4259% (DRC-1; 180'; concentration 40); 53.4351% (DRC-1; 180'; concentration 80). The “% inhibition apPOL 180'” value (DRC-2, 180', concentration 2.5) is -3.39%; the “% inhibition apPOL 180'” value (DRC-2, 180', concentration 5) was -3.25%; the “% inhibition apPOL 180'” value (DRC-2, 180', concentration 10) was found to be 5%; the “% inhibition apPOL 180'” value (DRC-2, 180', concentration 20) is listed as 12%; the “% inhibition apPOL 180'” value (DRC-2, 180', concentration 40) was 32%; the “% inhibition apPOL 180'” value (DRC-2, 180', concentration 80) amounted to 55%. In addition, the “% inhibition apPOL 180'” value (conc 10 (unit not given); 180'; DRC-2) is given as 5%. Moreover, the “% inhibition Apo pol 5'” value is, setting by setting: (DRC-2, 5', concentration 2.5) 9%; (DRC-2, 5', concentration 5) 10%; (DRC-2, 5', concentration 10) 23%; (DRC-2, 5', concentration 20) 31%; (DRC-2, 5', concentration 40) 47%; (DRC-2, 5', concentration 80) 58%. Also, the “% inhibition Apol 40'” value runs as follows: (DRC-2, 40', concentration 2.5) 5%; (DRC-2, 40', concentration 5) 7%; (DRC-2, 40', concentration 10) 19%; (DRC-2, 40', concentration 20) 27%; (DRC-2, 40', concentration 40) 48%; (DRC-2, 40', concentration 80) 64%. The “% inhibition Apol 40'” value (conc 2.5 (unit not given); 40'; DRC-2) was determined as 5%. The “% inhibition ApPOL 90'” value runs as follows: (DRC-2, 90', concentration 2.5) 2.82%; (DRC-2, 90', concentration 5) 2.82%; (DRC-2, 90', concentration 10) 15%; (DRC-2, 90', concentration 20) 22%; (DRC-2, 90', concentration 40) 44%; (DRC-2, 90', concentration 80) 62%. The “% inhibition ApPOL 90'” value is, setting by setting: (conc 2.5 (unit not given); 90'; DRC-2) 2.82%; (conc 5 (unit not given); 90'; DRC-2) 2.82%.
As for `CC(=O)Nc1cc(C(=O)NC(C)C)c2ccc(C)nc2c1` [KU0206312], the “% inhibition Apo pol 10'” value runs as follows: (DRC-1; 10'; concentration 2.5) -0.09953%; (DRC-1; 10'; concentration 5) 7.573%; (DRC-1; 10'; concentration 10) 27.7087%; (DRC-1; 10'; concentration 20) 47.6334%; (DRC-1; 10'; concentration 40) 73.4276%; (DRC-1; 10'; concentration 80) 85.3418%. In addition, the “% inhibition Apol 90'” value runs as follows: (DRC-1; 90'; concentration 2.5) -3.317%; (DRC-1; 90'; concentration 5) -1.224%; (DRC-1; 90'; concentration 10) 13.9494%; (DRC-1; 90'; concentration 20) 30.2375%; (DRC-1; 90'; concentration 40) 59.3171%; (DRC-1; 90'; concentration 80) 84.495%. In addition, the “% inhibition apPOL 180'” value (DRC-1; 180'; concentration 2.5) was -3.391%; the “% inhibition apPOL 180'” value (DRC-1; 180'; concentration 5) is -3.035%; the “% inhibition apPOL 180'” value (DRC-1; 180'; concentration 10) came to 6.928%; the “% inhibition apPOL 180'” value (DRC-1; 180'; concentration 20) is 18.5029%; the “% inhibition apPOL 180'” value (DRC-1; 180'; concentration 40) was 47.7981%; the “% inhibition apPOL 180'” value (DRC-1; 180'; concentration 80) is recorded as 83.4711%. Besides, the “% inhibition apPOL 180'” value (DRC-2; 180'; concentration 2.5) amounted to 2%; the “% inhibition apPOL 180'” value (DRC-2; 180'; concentration 5) came out at 5%; the “% inhibition apPOL 180'” value (DRC-2; 180'; concentration 10) is 20%; the “% inhibition apPOL 180'” value (DRC-2; 180'; concentration 20) is on record as 41%; the “% inhibition apPOL 180'” value (DRC-2; 180'; concentration 40) was 67%; the “% inhibition apPOL 180'” value (DRC-2; 180'; concentration 80) worked out at 78%. For the same molecule, for the setting “conc. 40; 180'; DRC-2”, the “% inhibition apPOL 180'” value turned out to be 67%. For the same molecule, the “% inhibition Apo pol 5'” value by setting is: (DRC-2; 5'; concentration 2.5) 8%; (DRC-2; 5'; concentration 5) 15%; (DRC-2; 5'; concentration 10) 35%; (DRC-2; 5'; concentration 20) 45%; (DRC-2; 5'; concentration 40) 47%; (DRC-2; 5'; concentration 80) 43%. Further, under “conc. 2.5; 5'; DRC-2”, the “% inhibition Apo pol 5'” value amounted to 8%. The “% inhibition Apol 40'” value by setting is: (DRC-2; 40'; concentration 2.5) 8%; (DRC-2; 40'; concentration 5) 13%; (DRC-2; 40'; concentration 10) 34%; (DRC-2; 40'; concentration 20) 51%; (DRC-2; 40'; concentration 40) 65%; (DRC-2; 40'; concentration 80) 67%. The “% inhibition Apol 40'” value by setting is: (conc. 2.5; 40'; DRC-2) 8%; (conc. 80; 40'; DRC-2) 67%. Moreover, the “% inhibition ApPOL 90'” value by setting is: (DRC-2; 90'; concentration 2.5) 6.64%; (DRC-2; 90'; concentration 5) 11%; (DRC-2; 90'; concentration 10) 31%; (DRC-2; 90'; concentration 20) 50%; (DRC-2; 90'; concentration 40) 68%; (DRC-2; 90'; concentration 80) 73%. The “DNA Pol” value is recorded as 32 (primary screen value by plate and well; 90 min, 10 µM); 32 (primary screen value of the 186 hits; unit not given; 90 min, 10 µM).
For `Cc1ncc(CSc2nc(C(C)(C)C)cs2)c(CO)c1O` [KU0264007], the “DNA Pol” value runs as follows: (186 hits, value of the hit list (primary screen); unit not given; 90 min, 10 µM) 70; (primary screen value, 'DNA Pol' only; 90 min, 10 µM) 70. For the same molecule, the “% inhibition Apo pol 10'” value reads like this: (DRC-1; 10'; concentration 2.5) 0.8986%; (DRC-1; 10'; concentration 5) 5.699%; (DRC-1; 10'; concentration 10) 22.1813%; (DRC-1; 10'; concentration 20) 37.8368%; (DRC-1; 10'; concentration 40) 57.9296%; (DRC-1; 10'; concentration 80) 69.8809%. For the same molecule, the “% inhibition Apol 90'” value (DRC-1; 90'; concentration 2.5) is -0.5136%; the “% inhibition Apol 90'” value (DRC-1; 90'; concentration 5) is reported as -0.3111%; the “% inhibition Apol 90'” value (DRC-1; 90'; concentration 10) is 8.991%; the “% inhibition Apol 90'” value (DRC-1; 90'; concentration 20) was 19.9803%; the “% inhibition Apol 90'” value (DRC-1; 90'; concentration 40) turned out to be 38.5024%; the “% inhibition Apol 90'” value (DRC-1; 90'; concentration 80) is 54.4417%. The “% inhibition apPOL 180'” value was -1.351% (DRC-1; 180'; concentration 2.5); -5.176% (DRC-1; 180'; concentration 5); 0.78% (DRC-1; 180'; concentration 10); 8.562% (DRC-1; 180'; concentration 20); 22.9628% (DRC-1; 180'; concentration 40); 39.37% (DRC-1; 180'; concentration 80). The “% inhibition apPOL 180'” value by setting is: (DRC-2, 180', concentration 2.5) -3%; (DRC-2, 180', concentration 5) -4.6%; (DRC-2, 180', concentration 10) 2.58%; (DRC-2, 180', concentration 20) 14%; (DRC-2, 180', concentration 40) 30%; (DRC-2, 180', concentration 80) 58%. Besides, the “% inhibition apPOL 180'” value (DRC-2; 180'; concentration 20) is listed as 14%. The “% inhibition Apo pol 5'” value runs as follows: (DRC-2, 5', concentration 2.5) 6.56%; (DRC-2, 5', concentration 5) 10%; (DRC-2, 5', concentration 10) 24%; (DRC-2, 5', concentration 20) 37%; (DRC-2, 5', concentration 40) 45%; (DRC-2, 5', concentration 80) 50%. For the same molecule, the “% inhibition Apol 40'” value was found to be 4% (DRC-2, 40', concentration 2.5); 6.47% (DRC-2, 40', concentration 5); 20% (DRC-2, 40', concentration 10); 35% (DRC-2, 40', concentration 20); 47% (DRC-2, 40', concentration 40); 61% (DRC-2, 40', concentration 80). Further, the “% inhibition ApPOL 90'” value reads like this: (DRC-2, 90', concentration 2.5) 1.8%; (DRC-2, 90', concentration 5) 2.55%; (DRC-2, 90', concentration 10) 14%; (DRC-2, 90', concentration 20) 28%; (DRC-2, 90', concentration 40) 43%; (DRC-2, 90', concentration 80) 62%. Under “DRC-2; 90'; concentration 10”, the “% inhibition ApPOL 90'” value stood at 14%.
As to `CCOc1ccc(/C=C2\N=C(c3cc([N+](=O)[O-])cc([N+](=O)[O-])c3)OC2=O)cc1` [Molecule 97], the half-maximal inhibitory concentration (IC50) under setting [1] was 4.47 µM.
`COc1ccc(NC(=O)Cn2ccc3c(=O)[nH]ccc32)cc1Cl` [Molecule 10]: the IC50 under setting [1] came out at 6.2 µM.
As for `COc1cccc(Oc2c(C(F)(F)F)oc3cc(OC(=O)N(C)C)ccc3c2=O)c1` [Molecule 52], the IC50 under setting [1] was 40.6 µM.
For `O=C(NNC(=O)C(F)(F)Sc1ccccc1)c1ccsc1` [Molecule 68], the concentration for half-maximal inhibition (IC50) under setting [1] was found to be 21 µM.
